According to US12077503B2, “Substituted cyclic amides and their use as herbicides” (FMC CORPORATION, priority 2015, dated 2024):

Experiments:
Assay type in all cases: in vivo
[1] = test system: pigweed (Amaranthus retroflexus); assay: Test A preemergence; conditions: Amaranthus retroflexus, pre-emergence, 240 h, 0 to 100 scale (0 no effect, 100 complete control), read-out: Plant response rating, Pigweed
[2] = test system: barnyardgrass (Echinochloa crus-galli); assay: Test A preemergence; conditions: Echinochloa crus-galli, pre-emergence, 240 h, 0 to 100 scale (0 no effect, 100 complete control), read-out: Plant response rating, Barnyardgrass
Summary of the method: (§1)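 Preemergence directed soil spray on seeded pots, or postemergence application to plants 2–10 cm, one- to two-leaf. Solvent mixture non-phytotoxic, with surfactant. Scored ~10 d later, visually, 0–100 vs untreated.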

[3] = test system: giant foxtail (Setaria faberii); assay: Test A preemergence; conditions: Setaria faberi, pre-emergence, 240 h, 0 to 100 scale (0 no effect, 100 complete control), read-out: Plant response rating, Foxtail, Giant
Summary of the method: as §1

[4] = test system: ryegrass, Italian (Italian ryegrass, Lolium multiflorum); assay: Test A preemergence; conditions: Lolium multiflorum, pre-emergence, 240 h, 0 to 100 scale (0 no effect, 100 complete control), read-out: Plant response rating, Ryegrass, Italian
Summary of the method: as §1

[5] = test system: ragweed (common ragweed, Ambrosia elatior); assay: Test A preemergence; conditions: Ambrosia artemisiifolia, pre-emergence, 240 h, 0 to 100 scale (0 no effect, 100 complete control), read-out: Plant response rating, Ragweed
Summary of the method: as §1

[6] = test system: Kochia (Kochia scoparia); assay: Test A preemergence; conditions: Bassia scoparia, pre-emergence, 240 h, 0 to 100 scale (0 no effect, 100 complete control), read-out: Plant response rating, Kochia
Summary of the method: as §1

[7] = test system: pigweed (Amaranthus retroflexus); assay: Test A postemergence; conditions: Amaranthus retroflexus, post-emergence, 240 h, Postemergence
Summary of the method: as §1

[8] = test system: barnyardgrass (Echinochloa crus-galli); assay: Test A postemergence; conditions: Echinochloa crus-galli, post-emergence, 240 h, Postemergence
Summary of the method: as §1

[9] = test system: Galium (catchweed bedstraw, Galium aparine); assay: Test A postemergence; conditions: Galium, post-emergence, 240 h, Postemergence
Summary of the method: as §1

[10] = test system: giant foxtail (Setaria faberii); assay: Test A postemergence; conditions: Setaria faberi, post-emergence, 240 h, Postemergence
Summary of the method: as §1

[11] = test system: corn (Zea mays); assay: Test A postemergence; conditions: Zea mays, post-emergence, 240 h, Postemergence
Summary of the method: as §1

[12] = test system: ryegrass, Italian (Italian ryegrass, Lolium multiflorum); assay: Test A postemergence; conditions: Lolium multiflorum, post-emergence, 240 h, Postemergence
Summary of the method: as §1

[13] = test system: wheat (Triticum aestivum); assay: Test A postemergence; conditions: Triticum aestivum, post-emergence, 240 h, Postemergence
Summary of the method: as §1

[14] = test system: ragweed (common ragweed, Ambrosia elatior); assay: Test A postemergence; conditions: Ambrosia artemisiifolia, post-emergence, 240 h, Postemergence
Summary of the method: as §1

[15] = test system: Kochia (Kochia scoparia); assay: Test A postemergence; conditions: Bassia scoparia, post-emergence, 240 h, Postemergence
Summary of the method: as §1

Compound CN1C[C@H](c2ccc(OC(F)F)cc2)[C@@H](C(=O)Nc2ccccc2F)C1=O [Compound 1371] has a pest or weed control at 500 g/ha ([1]; 500 g ai/ha, preemergence) of 90%, a pest or weed control at 125 g/ha ([1]; Preemergence, 125 g ai/ha) of 70% and a pest or weed control at 500 g/ha ([2]; 500 g ai/ha, preemergence) of 100%. It also gave a pest or weed control at 125 g/ha ([2]; Preemergence, 125 g ai/ha) of 90%, a pest or weed control at 500 g/ha ([3]; 500 g ai/ha, preemergence) of 90% and a pest or weed control at 125 g/ha ([3]; Preemergence, 125 g ai/ha) of 90%. It also gave a pest or weed control at 500 g/ha ([4]; 500 g ai/ha, preemergence) of 50%, a pest or weed control at 125 g/ha ([4]; Preemergence, 125 g ai/ha) of 0% and a pest or weed control at 500 g/ha ([5]; 500 g ai/ha, preemergence) of 80%. For the same compound, the pest or weed control at 125 g/ha ([5]; Preemergence, 125 g ai/ha) was 70%, the pest or weed control at 500 g/ha ([6]; 500 g ai/ha, preemergence) was 90% and the pest or weed control at 125 g/ha ([6]; Preemergence, 125 g ai/ha) was 80%. For the same compound, the pest or weed control at 125 g/ha ([7]; 125 g ai/ha, visual rating about 10 d after treatment, read-out: Pigweed plant response rating (0 to 100 scale)) was 30%, the pest or weed control at 500 g/ha ([7]; 500 g ai/ha, visual injury, 0 to 100 scale (0 no effect, 100 complete control), approx. 10 d, read-out: Plant response rating, Pigweed) was 60% and the pest or weed control at 125 g/ha ([8]; 125 g ai/ha, visual rating about 10 d after treatment, read-out: Barnyardgrass plant response rating (0 to 100 scale, 0 no effect, 100 complete control)) was 80%. It also gave a pest or weed control at 500 g/ha ([8]; 500 g ai/ha, visual injury, 0 to 100 scale (0 no effect, 100 complete control), approx. 10 d, read-out: Plant response rating, Barnyardgrass) of 90%, a pest or weed control at 125 g/ha ([9]; 125 g ai/ha, visual rating about 10 d after treatment, read-out: Galium plant response rating (0 to 100 scale)) of 70% and a pest or weed control at 500 g/ha ([9]; 500 g ai/ha, visual injury, 0 to 100 scale (0 no effect, 100 complete control), approx. 10 d, read-out: Plant response rating, Galium) of 70%. The pest or weed control at 125 g/ha ([10]; 125 g ai/ha, visual rating about 10 d after treatment, read-out: Foxtail, Giant plant response rating (0 to 100 scale)) was 90%, the pest or weed control at 500 g/ha ([10]; 500 g ai/ha, visual injury, 0 to 100 scale (0 no effect, 100 complete control), approx. 10 d, read-out: Plant response rating, Foxtail, Giant) was 90% and the plant injury at 125 g/ha ([11]; 125 g ai/ha, visual rating about 10 d after treatment, read-out: Corn plant response rating (0 to 100 scale)) was 40%. It also gave a Corn plant response rating (crop injury, 0 = no effect, 100 = complete kill) at 500 g/ha ([11]; 500 g ai/ha, visual injury, 0 to 100 scale (0 no effect, 100 complete control), approx. 10 d) of 90%, a pest or weed control at 125 g/ha ([12]; 125 g ai/ha, visual rating about 10 d after treatment, read-out: Ryegrass, Italian plant response rating (0 to 100 scale)) of 30% and a pest or weed control at 500 g/ha ([12]; 500 g ai/ha, visual injury, 0 to 100 scale (0 no effect, 100 complete control), approx. 10 d, read-out: Plant response rating, Ryegrass, Italian) of 50%. The plant injury at 125 g/ha ([13]; 125 g ai/ha, visual rating about 10 d after treatment, read-out: Wheat plant response rating (0 to 100 scale)) was 10%, the plant injury at 500 g/ha ([13]; 500 g ai/ha, visual injury, 0 to 100 scale (0 no effect, 100 complete control), approx. 10 d, read-out: Plant response rating, Wheat) was 60% and the pest or weed control at 125 g/ha ([14]; 125 g ai/ha, visual rating about 10 d after treatment, read-out: Ragweed plant response rating (0 to 100 scale)) was 20%. For the same compound, the pest or weed control at 500 g/ha ([14]; 500 g ai/ha, visual injury, 0 to 100 scale (0 no effect, 100 complete control), approx. 10 d, read-out: Plant response rating, Ragweed) was 60%, the pest or weed control at 125 g/ha ([15]; 125 g ai/ha, visual rating about 10 d after treatment, read-out: Kochia plant response rating (0 to 100 scale)) was 50% and the pest or weed control at 500 g/ha ([15]; 500 g ai/ha, visual injury, 0 to 100 scale (0 no effect, 100 complete control), approx. 10 d, read-out: Plant response rating, Kochia) was 80%.
